For one compound, Kp results are on record in patent US20230002346A1, “NEW COMPOUNDS AND METHODS” (BenevolentAl Bio Limited, priority 2019, published 2023).

A short description of this data set: Brain to plasma (B:P) ratio in rat. Format: in vivo, Sprague Dawley Rats. The settings on record: male, Sprague Dawley, po, p.o. 3.0 mg/kg, 30% HPBC in water, timepoints averaged 0.5-4 h. The method, then: Male Sprague Dawley Rats 300-350 g (Charles River, UK) were group housed, n=3, under a 12 h light/dark cycle with food and water available ad libitum. At 17:00 on the day prior to dosing all food was removed. On the day of dosing animals were weighed, tail marked and dosed via oral gavage with compound at 3 mg/kg in a volume of 5 mL/kg. Animals were culled at 30 min, 1 h and 4 h post dose via intra-peritoneal administration of pentobarbital. Post mortem blood was withdrawn via cardiac puncture, and briefly stored in K2 EDTA blood tubes on ice before being spun at 14,000 g for 4 min at 4° C. Plasma was withdrawn into a 96 well plate, placed on dry ice and stored at −80° C. Brains were quickly dissected and placed on dry ice before storage at −80° C. Bioanalysis of plasma and brain samples is performed as detailed below. Methods were prepared with guidance from industry standard documents.^i,ii […] Calibration lines are prepared in control male Sprague-Dawley Rat plasma at known concentrations in the range of 1-10000 ng/mL by spiking 2.5 μL of calibration spiking solution into 25 μL control plasma. Experimental samples are thawed to RT and 25 μL aliquots are extracted alongside the calibration lines using protein precipitation (agitation for at least 5 min at RT with 400 μL of MeCN containing 25 ng/mL tolbutamide as an internal standard). Protein precipitates are separated from the extracted test compound by centrifugation at 4000 rpm for 5 min, 4° C. […] Samples are analysed by UPLC-MS/MS on either an API6500 QTrap or Waters 30 TQS mass spectrometer using previously optimised analytical MRM (multiple reaction monitoring) methods, specific to the test compound. The concentration of test compound in isolated samples is determined following analysis of the samples against the two replicates of the calibration line, injected before and after the sample set with an appropriate regression and weighting used. Only samples within 20% of the expected test concentration are included in the calibration line and any samples that fall outside of the limits of the calibration line will be deemed to be less than or above the limit of quantification (LLoQ/ALoQ). […] Calibration lines are prepared in control male Sprague-Dawley Rat brain homogenate at known concentrations in the range of 3-30000 ng/g by spiking 2.5 μL of calibration spiking solution into 25 μL control homogenate. To prepare control and experimental brain homogenates, brains are thawed, weighed and a volume of diluent added (water) in the ratio of 2 mL per gram of brain. Homogenisation of brains is performed by bead-beater homogenisation using Precellys Evolution and CK14 7 mL small ceramic bead homogenisation tubes. Aliquots of 25 μL experimental sample are extracted alongside the calibration lines using protein precipitation (agitation for at least 5 min at RT with 400 μL of MeCN containing 25 ng/mL tolbutamide as an internal standard). Protein precipitates are separated from the extracted test compound by centrifugation at 4000 rpm for 5 min, 4° C. […] Samples are analysed by UPLC-MS/MS on either an API6500 QTrap or Waters TQS mass spectrometer using previously optimised analytical MRM (multiple reaction monitoring) methods, specific to the test compound. The concentration of test compound in isolated samples is determined following analysis of the samples against the two replicates of the calibration line, injected before and after the sample set with an appropriate regression and weighting used. Only samples within 20% of the expected test concentration are included in the calibration line and any samples that fall outside of the limits of the calibration line will be deemed to be less than or above the limit of quantification (LLoQ/ALoQ). Total brain to plasma (B:P) ratios were calculated by dividing the concentration in the brain by the concentration in plasma for each timepoint. The mean brain to plasma ratio is calculated by averaging these brain to plasma ratios across certain timepoints. […]

The Kp is the ratio of the level in a tissue or fluid to that in plasma or blood. Turning to `O=C(Nc1ccc(OC(F)(F)Cl)cc1)c1ccc(=O)n(-c2ccccc2)c1` [Example 56, N-[4-[Chloro(difluoro)methoxy]phenyl]-6-oxo-1-phenyl-pyridine-3-carboxamide], the partition ratio (Kp) was 1.91.
